We go through 4 compounds from patent US8883963B2 (Cadila Healthcare Limited, priority 2007, dated 2014).

Structures are written as SMILES.

For series [1], the target named is T1, Human GLP-1 receptor (Homo sapiens, UniProt P43220).
T1 construct: The full-length cDNA was cloned in pcDNA3.1(+); expressed in transfected cells
Briefly: In vitro Human GLP-1 R agonist activity (cyclic AMP determination) in CHO/human GLP1R cells. The format is cell-based.

In series [2] the target is T2, human glucagon receptor (Homo sapiens, UniProt P47871).
T2 construct: The full-length cDNA was cloned in pcDNA3.1 (Invitrogen); expressed in transfected cells
T2 sequence (P47871 26-477): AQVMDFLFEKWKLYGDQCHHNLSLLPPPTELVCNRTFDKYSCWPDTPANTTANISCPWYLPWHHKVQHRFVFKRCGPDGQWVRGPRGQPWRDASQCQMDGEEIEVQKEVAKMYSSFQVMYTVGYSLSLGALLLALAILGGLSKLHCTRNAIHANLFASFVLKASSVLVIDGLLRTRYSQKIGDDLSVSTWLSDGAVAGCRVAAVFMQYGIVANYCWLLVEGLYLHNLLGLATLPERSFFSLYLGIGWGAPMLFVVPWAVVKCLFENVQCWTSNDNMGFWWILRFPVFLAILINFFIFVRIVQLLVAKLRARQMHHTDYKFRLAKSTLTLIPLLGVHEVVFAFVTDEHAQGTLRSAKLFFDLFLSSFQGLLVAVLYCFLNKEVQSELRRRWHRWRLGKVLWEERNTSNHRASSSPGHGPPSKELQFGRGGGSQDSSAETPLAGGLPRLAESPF
In words: In vitro human glucagon antagonist activity (inhibition of cAMP production) in CHO/human glucagon R cells. The format is cell-based. As to conditions: with saturated concentration of glucagon peptide. For orientation: Changes in cAMP serve as a functional read-out for many G protein-coupled receptors.

Series [3] is described as follows: Stability in human plasma. The series is classed as in vitro ADME. To be noted: 2 μM peptidomimetic, pooled human plasma, 37° C.; for half-life at 2 μM: pH 7.8, read-out: half-life (t1/2) when incubated with human plasma. How it is done:
(§1) Reactions were terminated by the addition of TFA/H2O (15 mL, 10% (v/v)). […] The column was equilibrated with TFA/H20, at a flow rate of 1 mL/min.

Series [4] in a line: Stability in simulated intestinal fluid. The format is in vitro ADME. To be noted: 2 μM peptidomimetic, simulated intestinal fluid pH 7.5, 37° C.; for half-life at 2 μM: read-out: half-life (t1/2) when incubated with simulated intestinal fluid. How it is done:
as §1

The target of series [5] is DPP IV (Homo sapiens, UniProt P27487). In words: Stability against DPP IV enzyme. The format is in vitro ADME. As to conditions: 37° C.; for % degradation of peptidomimetics in 24 h when incubated with DPP-IV enzyme: 2 μM peptidomimetic; for half-life at 2 μM: DPP IV enzyme, pH 7.8, 2 μM peptidomimetic, read-out: half-life (t1/2) when incubated with DPP-IV enzyme. How it is done:
as §1

Series [6] is described as follows: Stability in liver microsomes. The series is classed as in vitro ADME. To be noted: 2 μM peptidomimetic, human liver microsomes, 37° C.; for half-life at 2 μM: pH 7.8, read-out: half-life (t1/2) when incubated with liver microsomes. The protocol:
as §1
Background: Microsomes from liver hold many membrane-bound enzymes, among them those of drug oxidation.

Series [7] can be described thus: Stability in simulated gastric fluid. As to conditions: 2 μM peptidomimetic, simulated gastric fluid pH 1.5, 37° C.; for half-life at 2 μM: read-out: half-life (t1/2) when incubated with simulated gastric fluid. The format is in vitro ADME. How it is done:
as §1

The test system of series [8] is RIN5F (Rat Insulinoma) cells. Briefly: In vitro glucose-dependent insulin secretion (RIN5F cell assay screening protocol). The series is classed as cell-based. As to conditions: 16.7 mM glucose load.

T1 sequence (P43220 24-463): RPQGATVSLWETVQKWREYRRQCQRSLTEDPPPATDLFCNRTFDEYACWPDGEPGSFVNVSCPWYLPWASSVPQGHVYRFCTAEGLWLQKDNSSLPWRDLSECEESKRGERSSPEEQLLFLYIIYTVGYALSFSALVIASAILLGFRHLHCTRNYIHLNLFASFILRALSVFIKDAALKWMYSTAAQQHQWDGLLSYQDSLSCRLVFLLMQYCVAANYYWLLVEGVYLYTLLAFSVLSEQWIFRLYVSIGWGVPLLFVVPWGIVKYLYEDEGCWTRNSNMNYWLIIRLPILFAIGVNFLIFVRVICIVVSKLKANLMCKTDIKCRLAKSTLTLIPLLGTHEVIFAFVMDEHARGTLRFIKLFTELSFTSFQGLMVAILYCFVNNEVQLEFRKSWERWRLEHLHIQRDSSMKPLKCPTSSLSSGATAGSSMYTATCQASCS
Sequence of DPP IV (P27487 whole entry, species assumed): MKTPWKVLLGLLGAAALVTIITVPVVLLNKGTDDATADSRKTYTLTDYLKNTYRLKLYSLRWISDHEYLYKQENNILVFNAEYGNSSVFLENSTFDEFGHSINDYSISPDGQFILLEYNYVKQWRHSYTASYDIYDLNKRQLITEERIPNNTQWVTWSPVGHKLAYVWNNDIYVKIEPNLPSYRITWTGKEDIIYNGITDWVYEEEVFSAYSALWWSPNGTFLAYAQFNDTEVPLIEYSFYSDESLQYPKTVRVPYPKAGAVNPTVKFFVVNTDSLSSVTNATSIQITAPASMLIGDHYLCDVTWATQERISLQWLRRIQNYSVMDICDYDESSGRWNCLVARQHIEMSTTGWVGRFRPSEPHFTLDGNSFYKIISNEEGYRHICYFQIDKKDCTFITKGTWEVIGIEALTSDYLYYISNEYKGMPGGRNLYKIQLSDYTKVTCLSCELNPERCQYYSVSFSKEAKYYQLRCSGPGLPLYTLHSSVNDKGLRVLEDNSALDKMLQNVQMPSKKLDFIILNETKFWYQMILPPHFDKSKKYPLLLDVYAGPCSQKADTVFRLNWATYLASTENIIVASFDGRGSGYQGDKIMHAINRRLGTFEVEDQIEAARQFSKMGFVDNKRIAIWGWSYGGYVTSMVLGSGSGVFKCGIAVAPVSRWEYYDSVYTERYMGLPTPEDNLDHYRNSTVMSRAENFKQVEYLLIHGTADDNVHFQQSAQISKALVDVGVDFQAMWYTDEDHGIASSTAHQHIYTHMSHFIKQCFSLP

On to `CCc1cc(OC)ccc1-c1ccc(CC(CNC(CCCc2ccccc2)C(N)=O)NC[C@H](CC(=O)O)NC(=O)[C@H](CO)NC(=O)[C@@H](NC(=O)C(C)(Cc2ccccc2F)NC(=O)[C@@H](NC(=O)CNC(=O)C(CCC#N)NC(=O)C(C)(C)NC(=O)[C@@H](N)Cc2c[nH]cn2)[C@H](C)O)[C@H](C)O)cc1` (single isomer, unassigned) [compound 202], for which the “Human GLP-1 R activity (cAMP release), % activity with respect to control” value in series [1] (1 nM test compound) is given as 99 ± 0.12%; in series [1] (10 nM test compound) it was 99 ± 0.15%; in series [1] (100 nM test compound), 99 ± 0.18%; in series [1] (1 μM test compound), 99 ± 0.03%; in series [1] (10 μM test compound), 99 ± 0.09%. For the same compound, the “Human Glucagon receptor antagonistic activity shown as inhibition of cAMP production of Glucagon peptide” value in series [2] (1 nM test compound) came out at 9 ± 0.14 pmol/ml/μg prt; in series [2] (10 nM test compound) it was 6 ± 0.14 pmol/ml/μg prt; in series [2] (100 nM test compound), 5 ± 0.13 pmol/ml/μg prt; in series [2] (1 μM test compound), 3 ± 0.24 pmol/ml/μg prt; in series [2] (10 μM test compound) it was 0 pmol/ml/μg prt. Further, the “% degradation of peptidomimetics in 24 h when incubated with human plasma” value (from here on “% degradation … with human plasma”) in series [3] was 00%. The half-life at 2 μM in series [3], in series [4], in series [5] and in series [7] was over 24 h throughout. Also, the “% degradation of peptidomimetics in 24 h when incubated with simulated intestinal fluid” value (“% degradation … with simulated intestinal fluid” for short) in series [4] was 00%. The “% degradation of peptidomimetics in 24 h when incubated with DPP-IV enzyme” value (shortened to “% degradation … with DPP-IV enzyme”) in series [5] is 00%. The “half-life (t1/2) when incubated with liver microsomes” value in series [6] was “(5) h”. In addition, the “% degradation of peptidomimetics in 24 h when incubated with liver microsomes” value (shortened to “% degradation … with liver microsomes”) in series [6] turned out to be 33%. The “% degradation of peptidomimetics in 24 h when incubated with simulated gastric fluid” value (from here on “% degradation … with simulated gastric fluid”) in series [7] was 00%. Further, the Insulin secretion came out at 16.8 ± 0.20 pg/µg/h in series [8] (0.1 nM test compd.), 22.7 ± 0.29 pg/µg/h in series [8] (1 nM test compd.) and 36.6 ± 0.31 pg/µg/h in series [8] (10 nM test compd.).
For `CCc1cc(OC)ccc1-c1ccc(CC(NC(=O)[C@H](CC(=O)O)NC(=O)[C@H](CO)NC(=O)[C@@H](NC(=O)[C@H](Cc2ccccc2)NC(=O)[C@@H](NC(=O)CNC(=O)C(CCC#N)NC(=O)C(C)(C)NC(=O)[C@@H](N)Cc2c[nH]cn2)[C@@H](C)O)[C@@H](C)O)C(=O)NC(CCCc2cc(C)cc(C)c2)C(N)=O)cc1` (single isomer, unassigned) [compound 30], the “Human GLP-1 R activity (cAMP release), % activity with respect to control” value is given as 38 ± 0.12% in series [1] (1 nM test compound); 78 ± 0.15% in series [1] (10 nM test compound); 86 ± 0.18% in series [1] (100 nM test compound); 95 ± 0.03% in series [1] (1 μM test compound); 98 ± 0.09% in series [1] (10 μM test compound). Moreover, the “Human Glucagon receptor antagonistic activity shown as inhibition of cAMP production of Glucagon peptide” value in series [2] (1 nM test compound) is on record as 22 ± 0.03 pmol/ml/μg prt; in series [2] (10 nM test compound), 21 ± 0.05 pmol/ml/μg prt; in series [2] (100 nM test compound), 20 ± 0.07 pmol/ml/μg prt; in series [2] (1 μM test compound), 18 ± 0.04 pmol/ml/μg prt; in series [2] (10 μM test compound), 18 ± 0.03 pmol/ml/μg prt. Also, the “% degradation … with human plasma” value in series [3] was found to be 00%. The half-life at 2 μM in series [3], in series [4], in series [5] and in series [7] was over 24 h each time. Besides, the “% degradation … with simulated intestinal fluid” value in series [4] was 00%. The “% degradation … with DPP-IV enzyme” value in series [5] was 00%. Also, the “half-life (t1/2) when incubated with liver microsomes” value in series [6] is listed as “(5) h”. For the same compound, in series [6], the “% degradation … with liver microsomes” value was 33%. Further, the “% degradation … with simulated gastric fluid” value in series [7] is given as 00%. Besides, the Insulin secretion was 17.1 ± 0.11 pg/µg/h in series [8] (0.1 nM test compd.), 23.1 ± 0.16 pg/µg/h in series [8] (1 nM test compd.) and 37.0 ± 0.29 pg/µg/h in series [8] (10 nM test compd.).
Turning to `CCc1cc(OC)ccc1-c1ccc(CC(CNC(CCCc2ccccc2F)C(N)=O)NC[C@H](CC(=O)O)NC(=O)[C@H](CO)NC(=O)[C@@H](NC(=O)C(C)(Cc2ccccc2F)NC(=O)[C@@H](NC(=O)CNC(=O)[C@H](CCC(N)=O)NC(=O)C(C)(C)NC(=O)[C@H](Cc2c[nH]cn2)NC(=O)OC)[C@H](C)O)[C@H](C)O)cc1` (single isomer, unassigned) [compound 200], the “Human GLP-1 R activity (cAMP release), % activity with respect to control” value in series [1] (1 nM test compound) is on record as 55 ± 0.16%; in series [1] (10 nM test compound) it was 88 ± 0.13%; in series [1] (100 nM test compound) it was 92 ± 0.11%; in series [1] (1 μM test compound) it was 99 ± 0.07%; in series [1] (10 μM test compound), 99 ± 0.09%. Further, the “Human Glucagon receptor antagonistic activity shown as inhibition of cAMP production of Glucagon peptide” value in series [2] (1 nM test compound) came out at 10 ± 0.16 pmol/ml/μg prt; in series [2] (10 nM test compound), 8 ± 0.12 pmol/ml/μg prt; in series [2] (100 nM test compound), 6 ± 0.14 pmol/ml/μg prt; in series [2] (1 μM test compound) it was 4 ± 0.15 pmol/ml/μg prt; in series [2] (10 μM test compound) it was 1 ± 0.12 pmol/ml/μg prt. In addition, the “% degradation … with human plasma” value in series [3] was found to be 00%. Moreover, the half-life at 2 μM in series [3] is over 24 h; in series [4], over 24 h; in series [5] it was over 24 h; in series [6] it was 2 h; in series [7], 4 h. In series [4], the “% degradation … with simulated intestinal fluid” value is on record as 00%. In addition, in series [5], the “% degradation … with DPP-IV enzyme” value was 00%. The “% degradation … with liver microsomes” value in series [6] came out at 81%. Also, in series [7], the “% degradation … with simulated gastric fluid” value is 52%. Further, the Insulin secretion in series [8] (0.1 nM test compd.) was determined as 16.5 ± 0.12 pg/µg/h; in series [8] (1 nM test compd.) it was 22.7 ± 0.17 pg/µg/h; in series [8] (10 nM test compd.), 36.5 ± 0.05 pg/µg/h.
For the compound `CCc1cc(OC)ccc1-c1ccc(CC(C(=O)N(C)C(CCCc2ccccc2)C(N)=O)N(C)C(=O)[C@H](CC(=O)O)N(C)C(=O)[C@H](CO)NC(=O)[C@@H](NC(=O)C(C)(Cc2ccccc2F)NC(=O)[C@@H](NC(=O)CNC(=O)C(CCC#N)NC(=O)C(C)(C)NC(=O)[C@@H](N)Cc2c[nH]cn2)[C@H](C)O)[C@H](C)O)cc1` (single isomer, unassigned) [compound 154], the “Human GLP-1 R activity (cAMP release), % activity with respect to control” value in series [1] (1 nM test compound) was 60 ± 0.12%; in series [1] (10 nM test compound), 92 ± 0.15%; in series [1] (100 nM test compound), 98 ± 0.18%; in series [1] (1 μM test compound), 99 ± 0.03%; in series [1] (10 μM test compound), 99 ± 0.09%. Moreover, the “Human Glucagon receptor antagonistic activity shown as inhibition of cAMP production of Glucagon peptide” value in series [2] (1 nM test compound) was determined as 9 ± 0.11 pmol/ml/μg prt; in series [2] (10 nM test compound), 6 ± 0.12 pmol/ml/μg prt; in series [2] (100 nM test compound), 5 ± 0.14 pmol/ml/μg prt; in series [2] (1 μM test compound) it was 3 ± 0.22 pmol/ml/μg prt; in series [2] (10 μM test compound), 0 pmol/ml/μg prt. Besides, the “% degradation … with human plasma” value in series [3] is listed as 75%. The half-life at 2 μM in series [3] was determined as 8 h; in series [5], 9 h; in series [6], 1 h. In addition, the “half-life (t1/2) when incubated with simulated intestinal fluid” value in series [4] was “(6) h”. Also, in series [4], the “% degradation … with simulated intestinal fluid” value is given as 46%. Besides, in series [5], the “% degradation … with DPP-IV enzyme” value was 74%. In series [6], the “% degradation … with liver microsomes” value is 83%. For the same compound, the “half-life (t1/2) when incubated with simulated gastric fluid” value in series [7] is “(8) h”. Moreover, in series [7], the “% degradation … with simulated gastric fluid” value is given as 12%. Moreover, the Insulin secretion in series [8] (0.1 nM test compd.) stood at 16.1 ± 0.22 pg/µg/h; in series [8] (1 nM test compd.), 22.1 ± 0.26 pg/µg/h; in series [8] (10 nM test compd.), 36.0 ± 0.36 pg/µg/h.
